From patent publication US20070128217A1 (priority 2003, published 2007)

Assays:
[1] = system: control sera (pooled serum of ten healthy LUMC hospital workers; commercial negative donor pooled serum from the Dutch bloodbank); type: binding, human; parameters: Binding of Control serum LUMC to linear peptides / Binding of Control serum Blood-bank to linear peptides / Binding of Control serum LUMC to looped peptides / Binding of Control Serum Blood-Bank to Looped peptides / Binding of Control serum LUMC to linear peptides of the protein M of SARS-CoV Urbani / Binding of Control serum Blood-bank to linear peptides of the protein M of SARS-CoV Urbani / Binding of Control serum LUMC to looped peptides of the protein M of SARS-CoV Urbani / Binding of Control Serum Blood-Bank to Looped peptides of the protein M of SARS-CoV Urbani: unit not given here
[2] = system: antibodies in sera from SARS patients (sera 1a, 1b, 2, 6, 37, 62, London, SARS-yellow, SARS-green); type: binding, human; parameters: Binding of serum 6 to linear peptides of protein X1 of SARS-CoV Urbani / Binding of serum 37 to linear peptides of protein X1 of SARS-CoV Urbani / Binding of serum 6 to looped/cyclic peptide (PEPSCAN-ELISA) / Binding of serum 37 to looped/cyclic peptide (PEPSCAN-ELISA) / Binding of serum 37 to looped/cyclic peptides of protein X1 of SARS-CoV Urbani / Binding of serum 6 to linear peptides of protein X2 / Binding of serum 37 to linear peptides of protein X2 / Binding of serum 37 to looped/cyclic peptides of protein X2 of SARS-CoV Urbani / Binding of serum 6 to linear peptides of protein M of SARS-CoV Urbani / Binding of serum 37 to linear peptides of protein M of SARS-CoV Urbani / Binding of serum 6 to looped/cyclic peptides of protein M of SARS-CoV Urbani / Binding of serum 37 to looped/cyclic peptides of protein M of SARS-CoV Urbani / Binding of serum 6 to linear peptides of protein X3 of SARS-CoV Urbani / Binding of serum 37 to linear peptides of protein X3 of SARS-CoV Urbani / Binding of serum 37 to looped/cyclic peptides of protein X3 of SARS-CoV Urbani / Binding of serum 6 to linear peptides of protein X4 of SARS-CoV Urbani / Binding of serum 37 to linear peptides of protein X4 of SARS-CoV Urbani / Binding of serum 37 to looped/cyclic peptides of protein X4 of SARS-CoV Urbani / Binding of serum 6 to linear peptides of protein X5 of SARS-CoV Urbani / Binding of serum 37 to linear peptides of protein X5 of SARS-CoV Urbani / Binding of serum 37 to looped/cyclic peptides of protein X5 of SARS-CoV Urbani / Binding of serum 6 to linear peptides of protein N of SARS-CoV Urbani / Binding of serum 37 to linear peptides of protein N of SARS-CoV Urbani / Binding of serum 6 to linear peptide (PEPSCAN-ELISA) / Binding of serum 1a to looped/cyclic peptides of protein N of SARS-CoV Urbani / Binding of serum 1b to looped/cyclic peptides of protein N of SARS-CoV Urbani / Binding of serum 2 to looped/cyclic peptides of protein N of SARS-CoV Urbani / Binding of serum 6 to looped/cyclic peptides of protein N of SARS-CoV Urbani / Binding of serum 37 to looped/cyclic peptides of protein N of SARS-CoV Urbani / Binding of serum 62 to looped/cyclic peptides of protein N of SARS-CoV Urbani / Binding of serum London to looped/cyclic peptides of protein N of SARS-CoV Urbani / Binding of serum SARS-green to looped/cyclic peptides of protein N of SARS-CoV Urbani: unit not given here
[3] = system: rabbit serum obtained by immunizing a rabbit with the SARS-CoV strain Frankfurt 1; type: binding; parameters: Binding of a rabbit serum to linear peptides / Binding of a rabbit serum to looped peptides / Rabbit serum linear peptides / Rabbit serum looped peptides / Binding of a rabbit serum to linear peptides of protein N of SARS-CoV Urbani (Rabbit serum linear peptides) / Binding of a rabbit serum to looped/cyclic peptides of protein N of SARS-CoV Urbani (Rabbit serum looped peptides): unit not given here
[4] = system: recombinant human anti-SARS-CoV antibody 03-018; type: binding; parameters: Binding of antibody 03-018 to linear peptides of the N protein of SARS-CoV Urbani / Binding of antibody 03-018 to looped/cyclic peptides of the N protein of SARS-CoV Urbani: unit not given here

RNGARPKQRRPQGLP
Binding of Control Serum Blood-Bank to Looped peptides [1]: 0.5
Binding of Control serum Blood-bank to linear peptides [1]: 0.8
Binding of Control serum LUMC to linear peptides [1]: 0.6
Binding of Control serum LUMC to looped peptides [1]: 0.6
Binding of serum 1a to linear peptides of protein N of SARS-CoV Urbani [2]: 0.2
Binding of serum 1a to looped/cyclic peptides of protein N of SARS-CoV Urbani [2]: 0.2
Binding of serum 1b to linear peptides of protein N of SARS-CoV Urbani [2]: 0.1
Binding of serum 1b to looped/cyclic peptides of protein N of SARS-CoV Urbani [2]: 0.1
Binding of serum 2 to linear peptides of protein N of SARS-CoV Urbani [2]: 0.2
Binding of serum 2 to looped/cyclic peptides of protein N of SARS-CoV Urbani [2]: 0.3
Binding of serum 6 to linear peptides of protein N of SARS-CoV Urbani [2]: 0.2
Binding of serum 6 to looped/cyclic peptides of protein N of SARS-CoV Urbani [2]: 0.2
Binding of serum 37 to linear peptides of protein N of SARS-CoV Urbani [2]: 0.6
Binding of serum 37 to looped/cyclic peptides of protein N of SARS-CoV Urbani [2]: 0.5
Binding of serum 62 to linear peptides of protein N of SARS-CoV Urbani [2]: 0.6
Binding of serum 62 to looped/cyclic peptides of protein N of SARS-CoV Urbani [2]: 0.4
Binding of serum London to linear peptides of protein N of SARS-CoV Urbani [2]: 0.5
Binding of serum London to looped/cyclic peptides of protein N of SARS-CoV Urbani [2]: 0.4
Binding of serum SARS-green to linear peptides of protein N of SARS-CoV Urbani [2]: 0.4
Binding of serum SARS-green to looped/cyclic peptides of protein N of SARS-CoV Urbani [2]: 0.3
Binding of serum SARS-yellow to linear peptides of protein N of SARS-CoV Urbani [2]: 0.5
Binding of serum SARS-yellow to looped/cyclic peptides of protein N of SARS-CoV Urbani [2]: 0.2
Binding of a rabbit serum to linear peptides of protein N of SARS-CoV Urbani (Rabbit serum linear peptides) [3]: 0.1
Binding of a rabbit serum to looped/cyclic peptides of protein N of SARS-CoV Urbani (Rabbit serum looped peptides) [3]: 0.2
Binding of antibody 03-018 to linear peptides of the N protein of SARS-CoV Urbani [4]: 0.1
Binding of antibody 03-018 to looped/cyclic peptides of the N protein of SARS-CoV Urbani [4]: 0.3

RNPNNNAATVLQLPQ
Binding of Control Serum Blood-Bank to Looped peptides [1]: 0.8
Binding of Control serum Blood-bank to linear peptides [1]: 0.7
Binding of Control serum LUMC to linear peptides [1]: 0.7
Binding of Control serum LUMC to looped peptides [1]: 0.9
Binding of serum 1a to linear peptides of protein N of SARS-CoV Urbani [2]: 0.2
Binding of serum 1a to looped/cyclic peptides of protein N of SARS-CoV Urbani [2]: 0.4
Binding of serum 1b to linear peptides of protein N of SARS-CoV Urbani [2]: 0.1
Binding of serum 1b to looped/cyclic peptides of protein N of SARS-CoV Urbani [2]: 0.4
Binding of serum 2 to linear peptides of protein N of SARS-CoV Urbani [2]: 0.3
Binding of serum 2 to looped/cyclic peptides of protein N of SARS-CoV Urbani [2]: 0.7
Binding of serum 6 to linear peptides of protein N of SARS-CoV Urbani [2]: 0.2
Binding of serum 6 to looped/cyclic peptides of protein N of SARS-CoV Urbani [2]: 0.3
Binding of serum 37 to linear peptides of protein N of SARS-CoV Urbani [2]: 0.6
Binding of serum 37 to looped/cyclic peptides of protein N of SARS-CoV Urbani [2]: 0.8
Binding of serum 62 to linear peptides of protein N of SARS-CoV Urbani [2]: 0.7
Binding of serum 62 to looped/cyclic peptides of protein N of SARS-CoV Urbani [2]: 0.9
Binding of serum London to linear peptides of protein N of SARS-CoV Urbani [2]: 0.5
Binding of serum London to looped/cyclic peptides of protein N of SARS-CoV Urbani [2]: 0.6
Binding of serum SARS-green to linear peptides of protein N of SARS-CoV Urbani [2]: 0.3
Binding of serum SARS-green to looped/cyclic peptides of protein N of SARS-CoV Urbani [2]: 0.6
Binding of serum SARS-yellow to linear peptides of protein N of SARS-CoV Urbani [2]: 0.6
Binding of serum SARS-yellow to looped/cyclic peptides of protein N of SARS-CoV Urbani [2]: 0.4
Binding of a rabbit serum to linear peptides of protein N of SARS-CoV Urbani (Rabbit serum linear peptides) [3]: 0.1
Binding of a rabbit serum to looped/cyclic peptides of protein N of SARS-CoV Urbani (Rabbit serum looped peptides) [3]: 0.8
Binding of antibody 03-018 to linear peptides of the N protein of SARS-CoV Urbani [4]: 0.1
Binding of antibody 03-018 to looped/cyclic peptides of the N protein of SARS-CoV Urbani [4]: 0.2

RNSTPGSSRGNSPAR
Binding of Control Serum Blood-Bank to Looped peptides [1]: 0.6
Binding of Control serum Blood-bank to linear peptides [1]: 0.9
Binding of Control serum LUMC to linear peptides [1]: 0.8
Binding of Control serum LUMC to looped peptides [1]: 0.7
Binding of serum 1a to linear peptide (PEPSCAN-ELISA) [2]: 0.6
Binding of serum 1a to looped/cyclic peptides of protein N of SARS-CoV Urbani [2]: 0.4
Binding of serum 1b to linear peptide (PEPSCAN-ELISA) [2]: 0.3
Binding of serum 1b to looped/cyclic peptides of protein N of SARS-CoV Urbani [2]: 0.3
Binding of serum 2 to linear peptide (PEPSCAN-ELISA) [2]: 0.3
Binding of serum 2 to looped/cyclic peptides of protein N of SARS-CoV Urbani [2]: 0.4
Binding of serum 6 to linear peptide (PEPSCAN-ELISA) [2]: 0.2
Binding of serum 6 to looped/cyclic peptides of protein N of SARS-CoV Urbani [2]: 0.3
Binding of serum 37 to linear peptide (PEPSCAN-ELISA) [2]: 0.7
Binding of serum 37 to looped/cyclic peptides of protein N of SARS-CoV Urbani [2]: 0.5
Binding of serum 62 to linear peptide (PEPSCAN-ELISA) [2]: 0.7
Binding of serum 62 to looped/cyclic peptides of protein N of SARS-CoV Urbani [2]: 0.5
Binding of serum London to linear peptide (PEPSCAN-ELISA) [2]: 0.4
Binding of serum London to looped/cyclic peptides of protein N of SARS-CoV Urbani [2]: 0.5
Binding of serum SARS-green to linear peptide (PEPSCAN-ELISA) [2]: 0.4
Binding of serum SARS-green to looped/cyclic peptides of protein N of SARS-CoV Urbani [2]: 0.1
Binding of serum SARS-yellow to linear peptide (PEPSCAN-ELISA) [2]: 0.7
Binding of serum SARS-yellow to looped/cyclic peptides of protein N of SARS-CoV Urbani [2]: 0.5
Recognition of the peptide by the rabbit serum [3]: recognized
Binding of antibody 03-018 to linear peptides of the N protein of SARS-CoV Urbani [4]: 0.1
Binding of antibody 03-018 to looped/cyclic peptides of the N protein of SARS-CoV Urbani [4]: 0.2

RPKQRRPQGLPNNTA
Binding of Control Serum Blood-Bank to Looped peptides [1]: 0.4
Binding of Control serum Blood-bank to linear peptides [1]: 0.8
Binding of Control serum LUMC to linear peptides [1]: 0.7
Binding of Control serum LUMC to looped peptides [1]: 0.5
Binding of serum 1a to linear peptides of protein N of SARS-CoV Urbani [2]: 0.3
Binding of serum 1a to looped/cyclic peptides of protein N of SARS-CoV Urbani [2]: 0.3
Binding of serum 1b to linear peptides of protein N of SARS-CoV Urbani [2]: 0.1
Binding of serum 1b to looped/cyclic peptides of protein N of SARS-CoV Urbani [2]: 0.1
Binding of serum 2 to linear peptides of protein N of SARS-CoV Urbani [2]: 0.3
Binding of serum 2 to looped/cyclic peptides of protein N of SARS-CoV Urbani [2]: 0.3
Binding of serum 6 to linear peptides of protein N of SARS-CoV Urbani [2]: 0.2
Binding of serum 6 to looped/cyclic peptides of protein N of SARS-CoV Urbani [2]: 0.3
Binding of serum 37 to linear peptides of protein N of SARS-CoV Urbani [2]: 0.7
Binding of serum 37 to looped/cyclic peptides of protein N of SARS-CoV Urbani [2]: 0.5
Binding of serum 62 to linear peptides of protein N of SARS-CoV Urbani [2]: 0.6
Binding of serum 62 to looped/cyclic peptides of protein N of SARS-CoV Urbani [2]: 0.5
Binding of serum London to linear peptides of protein N of SARS-CoV Urbani [2]: 0.5
Binding of serum London to looped/cyclic peptides of protein N of SARS-CoV Urbani [2]: 0.4
Binding of serum SARS-green to linear peptides of protein N of SARS-CoV Urbani [2]: 0.5
Binding of serum SARS-green to looped/cyclic peptides of protein N of SARS-CoV Urbani [2]: 0.2
Binding of serum SARS-yellow to linear peptides of protein N of SARS-CoV Urbani [2]: 0.7
Binding of serum SARS-yellow to looped/cyclic peptides of protein N of SARS-CoV Urbani [2]: 0.3
Binding of a rabbit serum to linear peptides of protein N of SARS-CoV Urbani (Rabbit serum linear peptides) [3]: 0.4
Binding of a rabbit serum to looped/cyclic peptides of protein N of SARS-CoV Urbani (Rabbit serum looped peptides) [3]: 0.4
Binding of antibody 03-018 to linear peptides of the N protein of SARS-CoV Urbani [4]: 0.1
Binding of antibody 03-018 to looped/cyclic peptides of the N protein of SARS-CoV Urbani [4]: 0.2
